From patent US20110053907A1, “SUBSTITUTED PYRIMIDINES AND TRIAZINES AND THEIR USE IN CANCER THERAPY” (Auckland UniServices Limited, priority 2008, published 2011)
“Also recorded” adds a separate entry of the source.

Legend:
PI3K isoforms = conditions: literature; cited from earlier work
[1] = tested on: PI 3-kinase in 3T3L1 adipocytes; assay: Cellular irreversibility assay, insulin-stimulated phosphoSer473 PKB Western blot with and without washout; format: cell-based
Procedure: Fully differentiated 3T3L1 adipocytes were starved overnight without serum. The following day, cells were incubated for 60 min with wortmannin (100 nM) as the positive control, LY 294002 (5 μM) as the negative control, the test compounds (1 μM), or DMSO.
To test for irreversibility, cells were then either: 1) rinsed 3 times with warm medium and incubated without an inhibitor for 30 min; or 2) maintained in the same medium containing an inhibitor.
Cells were subsequently stimulated or not with insulin (100 nM, 10 min). Finally, cells were washed twice with ice-cold Phosphate Buffer Saline (PBS) (140 mM NaCl, 3 mM KCl, 6 mM Na2HPO4, 1 mM KH2PO4 (pH 7.4)) and solubilized with a lysis buffer (20 mM Tris-HCl, 138 mM NaCl, 2.7 mM KCl, 1 mM MgCl2, 1 mM CaCl2, 5% (v/v) glycerol, 1% (v/v) Nonidet P-40 (NP40), 5 mM EDTA, 20 μM leupeptin, 18 μM pepstatin, 1 mM AEBSF, 4 μg/mL aprotinin, 2 mM Na3VO4, 20 mM NaF, 1 mM DTT (pH7.4)). Lysates were kept on ice for 20 min and insoluble material was removed by centrifugation at 14,000 g for 10 min. Protein concentration was determined by colorimetric assay (BCA, Pierce).
Proteins were separated by SDS-PAGE and transferred to polyvinylidene difluoride (PVDF) membranes (Pall Corporation, USA). The membranes were incubated for 1 hr in a blocking buffer (20 mM Tris (pH 7.4), 137 mM NaCl, 0.5% (v/v) Tween 20) containing 3% (w/v) BSA (ICP Bio, Auckland, New Zealand) or non-fat milk, and then incubated overnight in the blocking buffer containing specific antibodies (phosphoSer473 PKB and total PKB) Immunoreactive proteins were detected using horseradish peroxidase-linked secondary antibodies (Dako) and enhanced chemiluminescence (ECL) according to the manufacturer's instructions (GE Healthcare, Inc.). Signals were analyzed and quantified using Fuji LAS-3000 phosphorimager and Fuji Image Gauge software.
Overnight-starved 3T3L1 adipocytes cells were incubated for 60 min with compound of Example 4 at 1 μM (lanes 7-12). […]

NZOV9 = assay: Cellular growth inhibition, 3H-thymidine incorporation; format: cell-based, human; conditions: five days, 3H-thymidine over last 6 hrs; fifth data column
Procedure: The compounds were evaluated against two early passage human cell lines NZB5 and NZOV9 (Marshall et al., Oncol. Res. 2004, 14, 297). The cells were grown in ITS medium (α-modified minimal essential medium supplemented insulin, transferrin, selenite, and 5% fetal bovine serum) and grown on 96-well tissue culture plates under an atmosphere of 5% O2, 5% CO2, and 90% N2. Individual wells contained 500-1,000 cells (depending on the growth rate) in a volume of 150 μL. Compounds were added at 10-fold concentration steps to a maximum of 20 μM and plates were incubated for five days, with ^3H-thymidine being added over the last 6 hrs. Cells were harvested and incorporated radioactivity measured. Duplicate samples were analyzed for each compound dose with multiple control samples. Data were fitted by a least-squares method to an exponential of the form y=y0+ae^−bx, where y is the radioactivity (corrected for background and normalized to 100% of the control), x is the […], and y0, a, and b are variables, and the IC50 value defined as the compound concentration reducing ^3H-thymidine levels by 50%.

human tumour xenografts = conditions: mouse, in vivo; cited from earlier work

Compound: O=C1NC(=O)/C(=C\c2ccc3nccnc3c2)S1 [AS605240]
- PI3K isoform selectivity (PI3K isoforms): γ-selective

Compound: COc1cccc2c1nc(C(F)F)n2-c1nc(N2CCOCC2)nc(N2CCN(C(=O)CCl)CC2)n1 [Example 4, 1-[4-[4-(Chloroacetyl)-1-piperazinyl]-6-(4-morpholinyl)-1,3,5-triazin-2-yl]-2-(difluoromethyl)-4-methoxy-1H-benzimidazole]
- insulin-stimulated phosphorylation of PKB (phosphoSer473) ([1]; 1 μM, 60 min, compound left on cells, insulin 100 nM, 10 min (lanes 7-9)): attenuated
- insulin-stimulated phosphorylation of PKB (phosphoSer473) after washout ([1]; 1 μM, 60 min, rinsed 3 times, 30 min without compound, insulin 100 nM, 10 min (lanes 10-12)): attenuated
- irreversible binding to PI 3-kinase ([1]; 3T3L1 adipocytes, FIG. 1): irreversible binding; also recorded: irreversibly bound PI 3-kinase in the cells
- melting point: 241 to 243 °C

Compound: COc1cccc2c1nc(C(F)F)n2-c1nc(N2CCOCC2)nc(N(C)[C@@H]2CCCN(C(=O)CCl)C2)n1 [Example 39, N-[(3R)-1-(chloroacetyl)piperidinyl]-4-[2-(difluoromethyl)-4-methoxy-1H-benzimidazol-1-yl]-N-methyl-6-(4-morpholinyl)-1,3,5-triazin-2-amine]
- IC50 (NZOV9): < 100 nM

Compound: Cc1ccccc1-n1c(Cn2cnc3c(N)ncnc32)nc2cccc(C)c2c1=O [IC87114]
- PI3K isoform selectivity (PI3K isoforms): δ-selective

Compound: O=c1cc(N2CCOCC2)oc2c(-c3ccccc3)cccc12 [LY294002]
- tolerability (human tumour xenografts): well-tolerated

Compound: Oc1cccc(-c2nc(N3CCOCC3)c3oc4ncccc4c3n2)c1 [PI103]
- PI3K isoform selectivity (PI3K isoforms): slightly α-selective

Compound: C=CCN(/C=C1/C(=O)O[C@H](COC)[C@@]2(C)C1=C(O)C(=O)C1=C2[C@H](OC(C)=O)C[C@]2(C)C(=O)CC[C@@H]12)CC=C [PX-866]
- PI3K isoform selectivity (PI3K isoforms): not selective for individual PI3K isoforms
- mode of PI3K inhibition (reversible / irreversible) (PI3K isoforms): irreversible activity

Compound: Cc1cc(C(C)Nc2ccccc2)c2nc(N3CCOCC3)cc(=O)n2c1 (centres unmarked) [TGX221]
- PI3K isoform selectivity (PI3K isoforms): β-selective

Compound: FC(F)c1nc2ccccc2n1-c1nc(N2CCOCC2)nc(N2CCOCC2)n1 [ZSTK474]
- PI3K isoform selectivity (PI3K isoforms): non-selective

Compound: N-[(3S)-1-(chloroacetyl)piperidinyl]-4-[2-(difluoromethyl)-4-methoxy-1H-benzimidazol-1-yl]-N-methyl-6-(4-morpholinyl)-1,3,5-triazin-2-amine [Example 40]
- IC50 (NZOV9): < 100 nM
